Like-named read-outs stand apart in the source and are kept apart here.
What was measured:
[1] = system: CTX-M-14 KP1005; type: cell-based
[2] = system: CTX-M-15 KP1009; type: cell-based
[3] = system: SHV-5 ec308; type: cell-based; conditions: for TIG MPC4 SHV-5 ec308: minimum BLI concentration inhibiting growth with tigemonam at 4 μg/mL
[4] = system: TEM-10 ec302; type: cell-based
[5] = system: ECL1002; type: cell-based; conditions: for TIG MPC4 ECL1002: minimum BLI concentration inhibiting growth with tigemonam at 4 μg/mL
[6] = system: CMY-6 EC1010; type: cell-based; conditions: strain CMY-6 EC1010, tigemonam alone
[7] = system: CTX-M-15 KP1009; assay: Aztreonam potentiation (MPC@4); type: cell-based; conditions: minimum BLI concentration inhibiting growth with 4 μg/mL aztreonam
[8] = system: SHV-5 ec308; assay: Aztreonam potentiation (MPC@4); type: cell-based; conditions: minimum BLI concentration inhibiting growth with 4 μg/mL aztreonam
[9] = system: KPC-2 KP1004; assay: Aztreonam potentiation (MPC@4); type: cell-based; conditions: minimum BLI concentration inhibiting growth with 4 μg/mL aztreonam
[10] = system: ECL1002; assay: Aztreonam potentiation (MPC@4); type: cell-based; conditions: minimum BLI concentration inhibiting growth with 4 μg/mL aztreonam
[11] = system: CMY-6 EC1010; assay: Aztreonam potentiation (MPC@4); type: cell-based; conditions: minimum BLI concentration inhibiting growth with 4 μg/mL aztreonam
[12] = system: KP1004 KPC-2; assay: Biapenem potentiation (MPC@1); type: cell-based; conditions: minimum BLI concentration inhibiting growth with 1 μg/mL biapenem
Protocol: (§1) Biapenem was present in the test medium at 1 μg/mL. […] Table 3 summarizes the BLI potency of biapenem potentiation (MPC@1) for two strains overexpressing class A (KPC) and class D (OXA-48) carbapenemases. Biapenem MIC for each strain is also shown.

[13] = system: OXA-48 KP1086; assay: Biapenem potentiation (MPC@1); type: cell-based; conditions: minimum BLI concentration inhibiting growth with 1 μg/mL biapenem
Protocol: as §1

[14] = Salt/complex formation to maintain the monomeric form (solution pH, monomer by HPLC); type: physicochemical
Protocol: The effect of additives that would form a salt or complex with the boronic acid derivatives was evaluated in order to identify those that would strongly favor the monomeric form at an acceptable pH for IV infusion (pH 4-8). […] The pH of the resulting homogeneous solution was measured with a pH meter and the purity was monitored by HPLC. Several bases and complexing agents were screened to identify those that would afford the highest monomer content as salt/complex with a desired pH. […] Oligomerization was more pronounced at higher concentrations with some bases and complexing agents. Among all the bases screened, the meglumine complex gave the highest percentage of monomeric form at the desired pH.

[15] = Intravenous pharmacokinetics; type: in vivo; conditions: rat, plasma, rats, IV infusion over 0.5 hours, read-out: Free Cl (converted)
Protocol: Rats (n=3 per compound) were administered by a single infusion. IV doses were infused over 0.5 hours via an indwelling femoral vein cannula. Plasma (˜0.3 mL) samples were collected from each rat at designated time points up to 24 hours. Blood samples were centrifuged within 5 min of collection at 12000 g for 5 min to obtain plasma. The plasma samples were stored at −80° C. until analyzed. Data were analyzed using WinNonlin.

[16] = target: SHV-12 (Klebsiella pneumoniae, UniProt P0AD64, E235K/G234S/L31Q); assay: Inhibition of nitrocefin cleavage by purified enzyme (Ki); type: biochemical; conditions: nitrocefin reporter substrate, 10 min preincubation; read-out: Ki (SHV-12, NCF)
Protocol: Purified enzymes were mixed with various concentrations of inhibitors in reaction buffer and incubated for 10 min at room temperature. Nitrocefin was added and substrate cleavage profiles were recorded at 490 nm every 10 sec for 10 min.

[17] = Compound 13 2 mg/mL in water, Pyridine-2-methanol, 2 equivalents
[18] = Compound 13 3 mg/mL in water, L-Lysine, 2 equivalents
[19] = Compound 13 10 mg/mL in water, 0.5N NaOH, 1 equivalent
[20] = Compound 13 10 mg/mL in water, 0.5N NaOH, 2 equivalents
[21] = Compound 13 10 mg/mL in water, Diethanolamine, 2 equivalents
[22] = Compound 13 10 mg/mL in water, Ethanolamine, 2 equivalents
[23] = Compound 13 10 mg/mL in water, Tris, 2 equivalents
[24] = Compound 13 50 mg/mL in water, Tris, 2 equivalents
[25] = Compound 13 50 mg/mL in water, Tris, 3 equivalents

Chain of SHV-12 (P0AD64 22-286 L31Q/G234S/E235K): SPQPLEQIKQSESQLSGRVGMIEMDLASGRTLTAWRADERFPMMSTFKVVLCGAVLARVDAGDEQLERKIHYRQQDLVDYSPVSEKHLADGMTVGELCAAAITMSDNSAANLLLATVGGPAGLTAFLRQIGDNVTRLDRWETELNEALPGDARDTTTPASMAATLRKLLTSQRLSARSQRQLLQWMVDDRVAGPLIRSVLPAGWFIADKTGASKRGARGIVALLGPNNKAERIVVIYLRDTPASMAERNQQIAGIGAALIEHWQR

| SMILES | AZT MPC4 CTX-M-15 KP1009 [7] | AZT MPC4 SHV-5 ec308 [8] | AZT MPC4 KPC-2 KP1004 [9] | AZT MPC4 ECL1002 [10] | AZT MPC4 CMY-6 EC1010 [11] | TIG MPC4 CTX-M-14 KP1005 [1] | TIG MPC4 CTX-M-15 KP1009 [2] | TIG MPC4 SHV-5 ec308 [3] | TIG MPC4 TEM-10 ec302 [4] | TIG MPC4 ECL1002 [5] | BPM MPC1 KP1004 KPC-2 [12] | BPM MPC1 OXA-48 KP1086 [13] | clearance ([15]; dose 20 mg/kg) | Ki [16] | further results |
| --- | --- | --- | --- | --- | --- | --- | --- | --- | --- | --- | --- | --- | --- | --- | --- |
| CC1(C)[C@H](NC(=O)/C(=N\OCC(=O)O)c2csc(N)n2)C(=O)N1OS(=O)(=O)O [Tigemonam, reference compound] | – | – | – | – | – | – | – | – | – | – | – | – | – | – | Tigemonam MIC ([1]; strain CTX-M-14 KP1005, tigemonam alone): >64 µg/mL; Tigemonam MIC ([2]; strain CTX-M-15 KP1009, tigemonam alone): >64 µg/mL; Tigemonam MIC ([3]; strain SHV-5 ec308, tigemonam alone): >64 µg/mL; Tigemonam MIC ([4]; strain TEM-10 ec302, tigemonam alone): >64 µg/mL; Tigemonam MIC ([5]; strain ECL1002, tigemonam alone): 32 µg/mL; Tigemonam MIC [6]: 16 µg/mL |
| CSCC(=O)N[C@H]1Cc2cccc(C(=O)O)c2OB1O [Compound 13, (R)-2-hydroxy-3-(2-(methylthio)acetamido)-3,4-dihydro-2H-benzo[e][1,2]oxaborinine-8-carboxylic acid] | X (MIC of less than 1 μg/mL) | X (MIC of less than 1 μg/mL) | X (MIC of less than 1 μg/mL) | X (MIC of less than 1 μg/mL) | X (MIC of less than 1 μg/mL) | X (key: X: MIC of less than 1 μg/mL; Y: MIC of 1 μg/mL to 10 μg/mL; Z: MIC of greater than 10 μg/mL) | X (key: X: MIC of less than 1 μg/mL; Y: MIC of 1 μg/mL to 10 μg/mL; Z: MIC of greater than 10 μg/mL) | X (MIC of less than 1 μg/mL) | Y (key: X: MIC of less than 1 μg/mL; Y: MIC of 1 μg/mL to 10 μg/mL; Z: MIC of greater than 10 μg/mL) | X (MIC of less than 1 μg/mL) | X (MIC of less than 1 μg/mL) | Y (MIC of 1 μg/mL to 10 μg/mL) | 41.2 mL/min/kg | – | Monomer purity by HPLC (%) [14, 17]: 78%; pH [14, 17]: 5.5; Monomer purity by HPLC (%) [14, 18]: 97.3%; pH [14, 18]: 8.9; Monomer purity by HPLC (%) [14, 19]: 51.3%; pH [14, 19]: 7.3; Monomer purity by HPLC (%) [14, 20]: 60.9%; pH [14, 20]: 8.4; Monomer purity by HPLC (%) [14, 21]: 92.2%; pH [14, 21]: 11; Monomer purity by HPLC (%) [14, 22]: 97.1%; pH [14, 22]: 11; pH ([14]; Compound 13 10 mg/mL in water, Meglumine, 2 equivalents): 7.1; Monomer purity by HPLC (%) [14, 23]: 94.7%; pH [14, 23]: 7.8; pH ([14]; Compound 13 50 mg/mL in water, Meglumine, 2 equivalents): 7.2; Monomer purity by HPLC (%) [14, 24]: 89.7%; pH [14, 24]: 7.7; Monomer purity by HPLC (%) [14, 25]: 95.4%; pH [14, 25]: 8.5 |
| Nc1nnc(C(=O)N[C@H]2Cc3cccc(C(=O)O)c3OB2O)s1 [Compound 19, (R)-3-(5-amino-1,3,4-thiadiazole-2-carboxamido)-2-hydroxy-3,4-dihydro-2H-benzo[e][1,2]oxaborinine-8-carboxylic acid] | – | X (MIC of less than 1 μg/mL) | Y (MIC of 1 μg/mL to 10 μg/mL) | Y (MIC of 1 μg/mL to 10 μg/mL) | X (MIC of less than 1 μg/mL) | Y (key: X: MIC of less than 1 μg/mL; Y: MIC of 1 μg/mL to 10 μg/mL; Z: MIC of greater than 10 μg/mL) | Y (key: X: MIC of less than 1 μg/mL; Y: MIC of 1 μg/mL to 10 μg/mL; Z: MIC of greater than 10 μg/mL) | X (MIC of less than 1 μg/mL) | Y (key: X: MIC of less than 1 μg/mL; Y: MIC of 1 μg/mL to 10 μg/mL; Z: MIC of greater than 10 μg/mL) | Y (MIC of 1 μg/mL to 10 μg/mL) | X (MIC of less than 1 μg/mL) | Y (MIC of 1 μg/mL to 10 μg/mL) | – | < 1 nM | clearance ([15]; dose 10 mg/kg): 20.8 mL/min/kg |
| O=CN[C@H]1Cc2cccc(C(=O)O)c2OB1O [Compound 4, (R)-3-formamido-2-hydroxy-3,4-dihydro-2H-benzo[e][1,2]oxaborinine-8-carboxylic acid] | Y (MIC of 1 μg/mL to 10 μg/mL) | Y (MIC of 1 μg/mL to 10 μg/mL) | X (MIC of less than 1 μg/mL) | Y (MIC of 1 μg/mL to 10 μg/mL) | – | Y (key: X: MIC of less than 1 μg/mL; Y: MIC of 1 μg/mL to 10 μg/mL; Z: MIC of greater than 10 μg/mL) | Y (key: X: MIC of less than 1 μg/mL; Y: MIC of 1 μg/mL to 10 μg/mL; Z: MIC of greater than 10 μg/mL) | Y (MIC of 1 μg/mL to 10 μg/mL) | Z (key: X: MIC of less than 1 μg/mL; Y: MIC of 1 μg/mL to 10 μg/mL; Z: MIC of greater than 10 μg/mL) | X (MIC of less than 1 μg/mL) | X (MIC of less than 1 μg/mL) | Y (MIC of 1 μg/mL to 10 μg/mL) | 28.8 mL/min/kg | 1 to 10 nM | – |
| O=C(Cc1cccs1)N[C@H]1Cc2cccc(C(=O)O)c2OB1O [CPD A, reference compound] | Y (MIC of 1 μg/mL to 10 μg/mL) | X (MIC of less than 1 μg/mL) | Y (MIC of 1 μg/mL to 10 μg/mL) | Y (MIC of 1 μg/mL to 10 μg/mL) | Y (MIC of 1 μg/mL to 10 μg/mL) | Y (key: X: MIC of less than 1 μg/mL; Y: MIC of 1 μg/mL to 10 μg/mL; Z: MIC of greater than 10 μg/mL) | Y (key: X: MIC of less than 1 μg/mL; Y: MIC of 1 μg/mL to 10 μg/mL; Z: MIC of greater than 10 μg/mL) | Y (MIC of 1 μg/mL to 10 μg/mL) | Z (key: X: MIC of less than 1 μg/mL; Y: MIC of 1 μg/mL to 10 μg/mL; Z: MIC of greater than 10 μg/mL) | Y (MIC of 1 μg/mL to 10 μg/mL) | X (MIC of less than 1 μg/mL) | Y (MIC of 1 μg/mL to 10 μg/mL) | – | < 1 nM | – |
| O=C(CSC(F)F)N[C@H]1Cc2cccc(C(=O)O)c2OB1O [Compound 3, (R)-3-(2-(difluoromethylthio)acetamido)-2-hydroxy-3,4-dihydro-2H-benzo[e][1,2]oxaborinine-8-carboxylic acid] | – | X (MIC of less than 1 μg/mL) | Y (MIC of 1 μg/mL to 10 μg/mL) | Y (MIC of 1 μg/mL to 10 μg/mL) | X (MIC of less than 1 μg/mL) | X (key: X: MIC of less than 1 μg/mL; Y: MIC of 1 μg/mL to 10 μg/mL; Z: MIC of greater than 10 μg/mL) | X (key: X: MIC of less than 1 μg/mL; Y: MIC of 1 μg/mL to 10 μg/mL; Z: MIC of greater than 10 μg/mL) | X (MIC of less than 1 μg/mL) | Y (key: X: MIC of less than 1 μg/mL; Y: MIC of 1 μg/mL to 10 μg/mL; Z: MIC of greater than 10 μg/mL) | Y (MIC of 1 μg/mL to 10 μg/mL) | X (MIC of less than 1 μg/mL) | Y (MIC of 1 μg/mL to 10 μg/mL) | 40.8 mL/min/kg | < 1 nM | – |

Source: US9642869B2, “Boronic acid derivatives and therapeutic uses thereof” (Rempex Pharmaceuticals, Inc., priority 2013, dated 2017)
